Results on 1 cell line are retold here after the supplement of paper PMC10307832.

What all share (assay): relative viability (nuclei count vs DMSO), 5 days (fraction); higher = more cells survive
Compound in the assay “AZ505 + Pictilisib”: C1CCC(CC1)N(CCNCCC2=C3C(=C(C=C2)O)NC(=O)CO3)C(=O)CCNCCC4=CC(=C(C=C4)Cl)Cl [AZ505] + CS(=O)(=O)N1CCN(Cc2cc3nc(-c4cccc5[nH]ncc45)nc(N4CCOCC4)c3s2)CC1 [Pictilisib] (partner 1 µM)
The gist of the method:
(§1)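 Lung cancer cell lines were seeded in 1536-well plates and dosed by pin tool the next day, with either a single drug or a fixed anchor-drug dose combined with five library-drug doses (not always all listed) spaced in √10 steps. Five days later, one step fixed the cells and stained their nuclei (final 0.05% Triton X-100, 1% formaldehyde, 1 ug/ml Hoechst), and nuclei were counted on 4× images. Relative viability is the nuclei count in treated wells divided by the count in vehicle wells, and each value is the median of duplicate plates.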

Compound in the assay “Dactolisib + Foretinib”: Cn1c(=O)n(-c2ccc(C(C)(C)C#N)cc2)c2c3cc(-c4cnc5ccccc5c4)ccc3ncc21 [Dactolisib] + COc1cc2c(Oc3ccc(NC(=O)C4(C(=O)Nc5ccc(F)cc5)CC4)cc3F)ccnc2cc1OCCCN1CCOCC1 [Foretinib] (partner 0.25 µM)
The gist of the method: as §1

Compound in the assay “Dactolisib + Lapatinib”: Cn1c(=O)n(-c2ccc(C(C)(C)C#N)cc2)c2c3cc(-c4cnc5ccccc5c4)ccc3ncc21 [Dactolisib] + CS(=O)(=O)CCNCc1ccc(-c2ccc3ncnc(Nc4ccc(OCc5cccc(F)c5)c(Cl)c4)c3c2)o1 [Lapatinib] (partner 2 µM)
The gist of the method:
as §1

Compound in the assay “Dactolisib + Vorinostat”: Cn1c(=O)n(-c2ccc(C(C)(C)C#N)cc2)c2c3cc(-c4cnc5ccccc5c4)ccc3ncc21 [Dactolisib] + O=C(CCCCCCC(=O)Nc1ccccc1)NO [Vorinostat] (partner 1 µM)
The procedure, abridged:
as §1

With UMC-11, the relative viability was found to be 0.753 in the assay with AZ505 + Pictilisib (first compound 0.08 µM); 0.766 in the assay with AZ505 + Pictilisib (first compound 0.253 µM); 0.688 with AZ505 + Pictilisib (first compound 0.8 µM); 0.972 with AZ505 + Pictilisib (first compound 2.53 µM); 0.974 in the assay with AZ505 + Pictilisib (first compound 8 µM); 1.04 with Dactolisib + Foretinib (first compound 0.002 µM). Also, the relative viability with Dactolisib + Foretinib (first compound 0.006325 µM) is 0.882; in the assay with Dactolisib + Foretinib (first compound 0.02 µM), 0.671; with Dactolisib + Foretinib (first compound 0.06325 µM) it was 0.273; with Dactolisib + Foretinib (first compound 0.2 µM) it was 0.242; with Dactolisib + Lapatinib (first compound 0.002 µM), 0.863; with Dactolisib + Lapatinib (first compound 0.006325 µM), 0.788. In addition, the relative viability with Dactolisib + Lapatinib (first compound 0.02 µM) is 0.78; with Dactolisib + Lapatinib (first compound 0.06325 µM), 0.316; with Dactolisib + Lapatinib (first compound 0.2 µM), 0.272; in the assay with Dactolisib + Vorinostat (first compound 0.002 µM) it was 0.407; with Dactolisib + Vorinostat (first compound 0.006325 µM), 0.392; in the assay with Dactolisib + Vorinostat (first compound 0.02 µM) it was 0.245. Moreover, the relative viability with Dactolisib + Vorinostat (first compound 0.06325 µM) came out at 0.235; with Dactolisib + Vorinostat (first compound 0.2 µM), 0.175.
